Laboratory results taken from patent US20230227484A1, “PYRIMIDINE COMPOUND AS AXL INHIBITOR” (NANJING CHIA TAI TIANQING PHARMACEUTICAL CO., LTD., priority 2020, published 2023).

What was measured:
[1] = test system: MV-4-11 (human myeloid monocytic leukemia cell line); test: Proliferation inhibition activity of compounds to MV-4-11 cells (CellTiter-Glo); format: cell-based; details: MV4-11 cells, 72 h dosing
Protocol: MV-4-11 (human myeloid monocytic leukemia cell line, culture medium: JIMDM+10% fetal bovine serum) is purchased from Cobioer Biosciences Co., Ltd and cultured in a 5% C02 incubator at 37° C. The cells in a logarithmic growth phase are plated in a 96-well plate at cell densities of 8000 cells/well, 6000 cells/well, 2000 cells/well, 2000 cells/well and 3000 cells/well, and a blank control group is set at the same time.
A compound to be tested and the positive drug are dissolved in dimethyl sulfoxide to prepare a 10 mM stock solution, which is then stored in −80° C. refrigerator for long-time storage. After the cells are plated for 24 h, the 10 mM compound stock solution is diluted with dimethyl sulfoxide to obtain a working solution having a 200-fold concentration (the highest concentration is 200 or 2000 μM, a 3-fold gradient, a total of 10 concentrations), and 3 μL of the working solution of each concentration is added to 197 μL of complete medium, and diluted into a working solution of 3-fold concentration. 50 μL of the working solution is then taken and added to a 100 μL cell culture medium (a final concentration of dimethyl sulfoxide is 0.5%, v/v), and two complex holes are set for each concentration. After 72 h of dosing treatment, 50 μl of CellTiter-Glo® (purchased from Promega) is added to each well. Fluorescence signals are measured on Envision (PerkinElmer) according to an operating procedure of the specification. GraphPad Prism 5 software log(inhibitor) vs. response-Variable slope is used to fit a dose-response curve, so as to obtain the IC50 value of the compound to the inhibition of cell-proliferation. The calculation formulation of the inhibition rate is as follows: […]
wherein: signal value of subject: a mean fluorescence signal of cell+medium+compound group; signal value of blank group: a mean fluorescence signal of medium group (containing 0.5% DMSO); signal value of negative control group: a mean fluorescence signal of cell+medium group (containing 0.5% DMSO).

AXL kinase = biological target: T1, AXL kinase (Homo sapiens, UniProt P30530); test: Inhibitory activity of compound against AXL kinase (HTRF KinEASE); format: biochemical; details: AXL enzyme (Carna, 08-107), ATP 15 μM; "<" means below detection limit of the test
T1 construct: purchased Carna 08-107
T1 sequence (P30530 473-894 limits assumed): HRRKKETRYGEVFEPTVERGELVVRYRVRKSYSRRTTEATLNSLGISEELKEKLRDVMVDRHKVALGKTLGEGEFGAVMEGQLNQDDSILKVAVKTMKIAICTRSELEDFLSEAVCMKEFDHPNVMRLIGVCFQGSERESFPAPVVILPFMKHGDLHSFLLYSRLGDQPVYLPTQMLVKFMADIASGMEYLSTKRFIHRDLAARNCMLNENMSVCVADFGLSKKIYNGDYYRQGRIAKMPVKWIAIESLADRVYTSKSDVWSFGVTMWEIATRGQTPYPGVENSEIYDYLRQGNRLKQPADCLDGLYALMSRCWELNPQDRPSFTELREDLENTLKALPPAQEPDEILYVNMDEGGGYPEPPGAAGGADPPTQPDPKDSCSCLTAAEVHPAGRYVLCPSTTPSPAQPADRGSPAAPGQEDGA
In short: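 AXL enzyme (final 0.016 ng/uL) was preincubated with compound (8 concentrations from 1 μM, ½ log steps) for 15 min at room temperature, then reacted with TK Substrate 3-biotin (final 1) and ATP (final 15 μM) for 45 min at 25° C. Phosphorylation was read by HTRF (TK antibody-cryptate, streptavidin-XL665, 1 h); IC50 from variable-slope dose-response fit.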

IC50 [1] [nM]	IC50 (AXL kinase) [nM]	SMILES
6.16	1.27	CNC(=O)c1cc(C#N)ccc1Nc1nc(Nc2ccc3c(c2)CC[C@@H](N2CCCC2)CC3)ncc1Cl [Example 34, (S)-2-((5-chloro-2-((7-(pyrrolidin-1-yl)-6,7,8,9-tetrahydro-5H-benzo[7]annulen-2-yl)amino)pyrimidin-4-yl)amino)-5-cyano-N-methylbenzamide]
5.12	0.36	CNC(=O)c1cc(Cl)ccc1Nc1nc(Nc2ccc3c(c2)CC[C@@H](N2CCCC2)CC3)ncc1Cl [Example 36, (S)-5-chloro-2-((5-chloro-2-((7-(pyrrolidin-1-yl)-6,7,8,9-tetrahydro-5H-benzo[7]annulen-2-yl)amino)pyrimidin-4-yl)amino)-N-methylbenzamide]
41.3	5.29	CC(C)(O)c1ccc(Nc2nc(Nc3ccc4c(c3)CC[C@@H](N3CCCC3)CC4)ncc2Cl)c(P(C)(C)=O)c1 [Example 138]
1.46	0.8	CNC(=O)c1ccccc1Nc1nc(Nc2ccc3c(c2)CCN(C2CCOCC2)CC3)ncc1Cl [Example 31, 2-((5-chloro-2-((3-(tetrahydro-2H-pyran-4-yl)-2,3,4,5-tetrahydro-1H-benzo[d]aza-7-yl)amino)pyrimidin-4-yl)amino)-N-methylbenzamide]
3.63	0.85	COc1c(F)ccc(Nc2nc(Nc3ccc4c(c3)CC[C@@H](N3CCCC3)CC4)ncc2Cl)c1P(C)(C)=O [Example 134, (S)-(6-((5-chloro-2-((7-(pyrrolidin-1-yl)-6,7,8,9-tetrahydro-5H-benzo[7]annulen-2-yl)amino)pyrimidin-4-yl)amino)-3-fluoro-2-methoxyphenyl)dimethyl phosphine oxide]
3.39	0.18	CNC(=O)c1cc(OC)ccc1Nc1nc(Nc2ccc3c(c2)CC[C@@H](N2CCCC2)CC3)ncc1Cl [Example 37, (S)-2-((5-chloro-2-(((7-(pyrrolidin-1-yl)-6,7,8,9-tetrahydro-5H-benzo[7]annulen-2-yl)amino))pyrimidin-4-yl)amino)-5-methoxyl-N-methylbenzamide]
1.98	0.75	CNC(=O)c1ccccc1Nc1nc(Nc2ccc3c(c2)CCN(C2CCCC2)CC3)ncc1Cl [Example 32, 2-((5-chloro-2-((3-cyclopentyl-2,3,4,5-tetrahydro-1H-benzo(d)aza-7-yl)amino)pyrimidine-4-yl)amino)-N-methylbenzamide]
13.9	2.43	CP(C)(=O)c1cc(CO)ccc1Nc1nc(Nc2ccc3c(c2)CC[C@@H](N2CCCC2)CC3)ncc1Cl [Example 141, (S)-(2-((5-chloro-2-((7-(pyrrolidin-1-yl)-6,7,8,9-tetrahydro-5H-benzo[7]annulen-2-yl)amino)pyrimidin-4-yl)amino)-5-(hydroxymethyl)phenyl)dimethyl phosphine oxide]
3.48	0.5	CNC(=O)c1cc(O)ccc1Nc1nc(Nc2ccc3c(c2)CC[C@@H](N2CCCC2)CC3)ncc1Cl [Example 45, (S)-2-((5-chloro-2-((7-(pyrrolidin-1-yl)-6,7,8,9-tetrahydro-5H-benzo[7]annulen-2-yl)amino)pyrimidin-4-yl)amino)-5-hydroxyl-N-methylbenzamide]
4.23	1.35	Cc1c(F)ccc(Nc2nc(Nc3ccc4c(c3)CC[C@@H](N3CCCC3)CC4)ncc2Cl)c1P(C)(C)=O [Example 135, (S)-(6-((5-chloro-2-((7-(pyrrolidin-1-yl)-6,7,8,9-tetrahydro-5H-benzo[7]annulen-2-yl)amino)pyrimidin-4-yl)amino)-3-fluoro-2-methylphenyl)dimethyl phosphine oxide]

Continued, compound first:

SMILES	IC50 [1] [nM]	IC50 (AXL kinase) [nM]
O=S(=O)(NC1CC1)c1ccccc1Nc1nc(Nc2ccc3c(c2)CC[C@@H](N2CCCC2)CC3)ncc1Cl [Example 24, (S)-2-((5-chloro-2-((7-(pyrrolidin-1-yl)-6,7,8,9-tetrahydro-5H-benzo[7]annulen-2-yl)amino)pyrimidin-4-yl)amino)-N-cyclopropyl benzenesulfonamide]	6.89	< 0.11
CNC(=O)c1ccccc1Nc1nc(Nc2ccc3c(c2)CC[C@@H](N2CCCC2)CC3)ncc1Cl [Example 12, (S)-2-((5-chloro-2-((7-(pyrrolidin-1-yl)-6,7,8,9-tetrahydro-5H-benzo[7]annulen-2-yl)amino)pyrimidin-4-yl)amino)-N-methylbenzamide]	1.44	< 0.11
NC(=O)c1cc(F)ccc1Nc1nc(Nc2ccc3c(c2)CC[C@@H](N2CCCC2)CC3)ncc1Cl [Example 16, (S)-2-((5-chloro-2-((7-(pyrrolidin-1-yl)-6,7,8,9-tetrahydro-5H-benzo[7]annulen-2-yl)amino)pyrimidin-4-yl)amino)-5-fluorobenzamide]	0.97	0.12
CS(=O)(=O)c1ccccc1Nc1nc(Nc2ccc3c(c2)CC[C@@H](N2CCCC2)CC3)ncc1Cl [Example 23, (S)-5-chloro-N^4-(2-(methylsulfonyl)phenyl)-N^2-(7-(pyrrolidin-1-yl)-6,7,8,9-tetrahydro-5H-benzo[7]annulen-2-yl)pyrimidine-2,4-diamine]	7.11	1.38
CNC(=O)c1cnccc1Nc1nc(Nc2ccc3c(c2)CC[C@@H](N2CCCC2)CC3)ncc1Cl [Example 20, (S)-4-((5-chloro-2-((7-(pyrrolidin-1-yl)-6,7,8,9-tetrahydro-5H-benzo[7]annulen-2-yl)amino)pyrimidin-4-yl)amino)-N-methylnicotinamide]	5.96	1.93
Clc1cnc(Nc2ccc3c(c2)CC[C@@H](N2CCCC2)CC3)nc1Nc1ccccc1-c1ncn[nH]1 [Example 25, (S)—N^4-(2-(1H-1,2,4-triazol-5-yl)phenyl)-5-chloro-N^2-(7-(pyrrolidin-1-yl)-6,7,8,9-tetrahydro-5H-benzo[7]annulen-2-yl)pyrimidine-2,4-diamine]	3.23	0.62
CC(C)S(=O)(=O)c1ccccc1Nc1nc(Nc2ccc3c(c2)CC[C@@H](N2CCCC2)CC3)ncc1Cl [Example 22, (S)-5-chloro-N^4-(2-(isopropylsulfo)phenyl)-N^2-(7-(pyrrolidin-1-yl)-6,7,8,9-tetrahydro-5H-benzo[7]annulen-2-yl)pyrimidine-2,4-diamine]	6.76	0.11
O=C(c1ccccc1Nc1nc(Nc2ccc3c(c2)CC[C@@H](N2CCCC2)CC3)ncc1Cl)N1CCCC1 [Example 6, (S)-(2-((5-chloro-2-((7-(pyrrolidin-1-yl)-6,7,8,9-tetrahydro-5H-benzo[7]annulen-2-yl)amino)pyrimidin-4-yl)amino)phenyl)(pyrrolidin-1-yl)methanone]	3.38	< 0.11
O=C1NCc2cccc(Nc3nc(Nc4ccc5c(c4)CC[C@@H](N4CCCC4)CC5)ncc3Cl)c21 [Example 29, (S)-7-((5-chloro-2-(((7-(pyrrolidin-1-yl)-6,7,8,9-tetrahydro-5H-benzo[7]annulen-2-yl)amino))pyrimidin-4-yl)amino)isoindolin-1-one]	3.23	0.34
NC(=O)c1ccccc1Nc1nc(Nc2ccc3c(c2)CC[C@@H](N2CCCC2)CC3)ncc1Cl [Example 13, (S)-2-((5-chloro-2-((7-(pyrrolidin-1-yl)-6,7,8,9-tetrahydro-5H-benzo[7]annulen-2-yl)amino)pyrimidin-4-yl)amino)benzamide]	0.64	< 0.11
